What was measured:
BAM7 + AZD7762 = compound: CCOC1=CC=CC=C1N=NC2=C(NN(C2=O)C3=NC(=CS3)C4=CC=CC=C4)C [BAM7] + NC(=O)Nc1cc(-c2cccc(F)c2)sc1C(=O)N[C@H]1CCCNC1 [AZD7762] (partner 0.2 µM); experiment: relative viability (nuclei count vs DMSO), 5 days (fraction); higher = more cells survive
Procedure, shortened: (§1)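 Lung cancer cell lines were pin-tool dosed in 1536-well plates on the day after seeding, with either a lone drug or a fixed anchor-drug dose plus five library-drug doses (not always all listed) in √10 steps. Nuclei were counted on 4× images after 5 days. Relative viability is the ratio of treated-well to vehicle-well nuclei counts, with each value a median of duplicate plates.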

BAM7 + Trametinib = compound: CCOC1=CC=CC=C1N=NC2=C(NN(C2=O)C3=NC(=CS3)C4=CC=CC=C4)C [BAM7] + CC(=O)Nc1cccc(-n2c(=O)n(C3CC3)c(=O)c3c(Nc4ccc(I)cc4F)n(C)c(=O)c(C)c32)c1 [Trametinib] (partner 0.02 µM); experiment: as above
Procedure, shortened: as §1

Cell Line	relative viability (BAM7 + AZD7762; first compound 0.5 µM)	relative viability (BAM7 + AZD7762; first compound 5 µM)	relative viability (BAM7 + AZD7762; first compound 15.81 µM)	relative viability (BAM7 + AZD7762; first compound 50 µM)	relative viability (BAM7 + Trametinib; first compound 0.5 µM)	relative viability (BAM7 + Trametinib; first compound 5 µM)	relative viability (BAM7 + Trametinib; first compound 15.81 µM)	relative viability (BAM7 + Trametinib; first compound 50 µM)
201T	0.705	0.688	0.715	0.678	0.742	0.738	0.71	0.708
A-427	0.743	0.848	0.802	0.737	0.765	0.809	0.752	0.911
ABC-1	0.755	1.29	0.863	0.783	–	–	–	–
BEN	0.689	0.802	0.939	0.74	1.04	1.1	0.851	1.05
CAL-12T	0.589	0.714	0.557	0.609	0.381	0.333	0.303	0.384
COR-L23	–	–	–	–	0.519	0.58	0.614	0.657
COR-L 105	–	–	–	–	0.404	0.525	0.466	0.272
ChaGo-K-1	0.831	0.891	0.843	0.808	0.894	0.895	0.853	0.842
EKVX	0.871	0.617	0.668	0.704	0.474	0.301	0.294	0.308
EMC-BAC-2	1.15	0.999	1.22	1.24	0.941	0.944	0.941	1.02
EPLC-272H	0.23	0.301	0.226	0.289	0.292	0.31	0.252	0.28
H3255	0.831	0.838	0.73	0.847	0.539	0.607	0.507	0.555
HARA	0.21	0.269	0.356	0.195	0.827	0.886	0.607	1.13
HCC-15	1.29	1.24	1.06	1.21	0.341	0.374	0.331	0.384
HCC-44	1.03	0.964	1.05	0.983	1.07	1.11	0.983	1.12
HCC-78	0.635	1.4	0.702	0.627	0.579	0.805	0.689	0.819
HCC-366	0.173	0.19	0.191	0.186	0.328	0.373	0.294	0.356
HCC-827	0.199	0.201	0.284	0.182	0.535	0.548	0.591	0.556
HOP-62	0.648	0.917	0.733	0.342	0.37	0.416	0.376	0.352
LC-2-ad	0.916	0.832	0.832	0.805	0.884	0.91	0.87	0.847
LCLC-97TM1	0.222	0.172	0.29	0.252	0.202	0.199	–	0.224
LCLC-103H	0.825	0.88	0.725	0.781	0.664	0.706	0.69	0.684
LK-2	0.407	0.472	0.515	0.404	0.737	0.945	0.811	0.841
LOU-NH91	0.796	0.794	0.75	0.793	0.794	0.788	0.804	0.805
LU99A	0.371	0.438	0.35	0.293	0.54	0.548	0.552	0.575

Cell Line	relative viability (BAM7 + AZD7762; first compound 0.5 µM)	relative viability (BAM7 + AZD7762; first compound 5 µM)	relative viability (BAM7 + AZD7762; first compound 15.81 µM)	relative viability (BAM7 + AZD7762; first compound 50 µM)	relative viability (BAM7 + Trametinib; first compound 0.5 µM)	relative viability (BAM7 + Trametinib; first compound 5 µM)	relative viability (BAM7 + Trametinib; first compound 15.81 µM)	relative viability (BAM7 + Trametinib; first compound 50 µM)
LXF-289	1.12	1.17	1.13	1.04	0.739	0.762	0.734	0.641
NCI-H23	0.165	0.35	0.287	0.255	0.314	0.423	0.389	0.462
NCI-H322M	0.554	0.467	0.544	0.583	0.525	0.577	0.496	0.571
NCI-H358	0.62	0.519	0.5	0.55	–	0.152	0.137	0.126
NCI-H441	1.35	1.46	0.888	1.12	0.522	0.518	0.498	0.496
NCI-H460	0.595	0.751	0.494	0.571	0.0937	0.124	0.145	0.13
NCI-H520	–	–	–	–	0.595	0.782	0.804	0.789
NCI-H522	0.748	0.967	0.851	0.851	0.72	0.741	0.665	0.718
NCI-H596	1.27	1.12	0.92	1.05	0.869	0.838	0.754	0.736
NCI-H647	0.559	0.488	0.592	0.459	0.457	0.599	0.494	0.445
NCI-H650	0.913	0.992	1.01	1.15	1.02	0.98	1.04	1.28
NCI-H661	–	–	–	–	0.561	0.638	0.606	0.619
NCI-H727	0.586	0.675	0.678	0.41	0.413	0.414	0.393	0.386
NCI-H838	0.919	0.968	0.862	1	0.504	0.524	0.498	0.494
NCI-H1355	0.654	0.66	0.68	0.697	0.399	0.386	0.317	0.457
NCI-H1395	0.395	0.407	0.394	0.421	0.972	1.28	0.946	1.06
NCI-H1437	1.1	1.11	0.945	1.02	0.415	0.396	0.394	0.414
NCI-H1648	0.489	0.775	0.633	0.921	0.558	0.476	0.421	0.464
NCI-H1650	–	–	–	–	0.607	0.467	0.578	0.727
NCI-H1651	0.444	0.46	0.473	0.45	0.859	0.842	0.835	0.862
NCI-H1666	0.847	0.826	0.902	0.762	0.895	0.879	0.887	0.837
NCI-H1703	0.14	0.115	0.122	0.132	–	–	–	–
NCI-H1734	0.559	0.642	0.526	0.548	0.766	0.798	0.667	0.626
NCI-H1755	0.472	0.437	0.495	0.405	0.749	0.805	0.705	0.779
NCI-H1792	0.681	0.65	0.605	0.633	0.46	0.462	0.401	0.362

Cell Line	relative viability (BAM7 + AZD7762; first compound 0.5 µM)	relative viability (BAM7 + AZD7762; first compound 5 µM)	relative viability (BAM7 + AZD7762; first compound 15.81 µM)	relative viability (BAM7 + AZD7762; first compound 50 µM)	relative viability (BAM7 + Trametinib; first compound 0.5 µM)	relative viability (BAM7 + Trametinib; first compound 5 µM)	relative viability (BAM7 + Trametinib; first compound 15.81 µM)	relative viability (BAM7 + Trametinib; first compound 50 µM)
NCI-H1793	0.544	0.341	0.428	0.426	0.407	0.473	0.385	0.483
NCI-H1915	0.676	0.671	0.759	0.741	0.333	0.317	0.272	0.323
NCI-H1944	0.51	0.525	0.508	0.623	0.444	0.433	0.434	0.439
NCI-H1975	0.725	0.763	0.642	0.632	0.329	0.366	0.332	0.415
NCI-H1993	0.814	0.624	0.495	0.665	0.456	0.524	0.479	0.506
NCI-H2009	–	–	–	–	0.265	0.229	0.268	0.283
NCI-H2023	–	–	–	–	0.525	0.437	0.398	0.49
NCI-H2085	0.967	0.709	0.915	0.991	0.587	0.521	0.471	0.52
NCI-H2087	1.34	1.47	1.25	1.07	0.18	0.181	0.204	0.173
NCI-H2126	0.804	0.983	1.03	0.936	0.516	0.499	0.519	0.476
NCI-H2170	0.652	0.691	0.614	0.804	0.917	0.799	0.814	0.816
NCI-H2228	–	–	–	–	0.601	0.523	0.41	0.547
NCI-H2342	0.53	0.61	0.431	0.388	0.933	0.818	0.745	0.82
NCI-H2347	0.768	0.657	0.902	0.794	0.326	0.32	0.277	0.287
NCI-H2405	0.832	0.862	0.811	0.758	0.596	0.706	0.477	0.715
NCI-H3122	0.946	1.13	0.918	0.846	0.24	0.232	0.283	0.198
PC-3 [JPC-3]	0.889	0.74	0.64	0.686	0.592	0.722	0.637	0.617
PC-14	0.356	0.317	0.334	0.374	0.829	0.745	0.542	0.697
RERF-LC-KJ	0.992	1.11	0.855	0.627	0.767	0.708	0.526	0.642
SK-LU-1	–	–	–	–	0.575	0.525	0.527	0.499
SK-MES-1	–	–	–	–	0.566	0.551	0.523	0.495
SW 900	–	0.592	–	0.691	–	0.72	–	0.888
SW 1573	–	–	–	–	0.633	0.592	0.541	0.528
